From patent publication US8609699B2, “Oxotetrahydrofuran-2-yl-benzimidazole derivative” (MSD K.K., priority 2008, dated 2013)
Values belong to the molecule of their own block, whether it stands above or below them.

Experiments:
[1] = target: T1, recombinant human liver GK (Homo sapiens, UniProt P35557); test: Glucokinase-activating effect (Thio-NADH, G6PDH-coupled assay); assay type: biochemical; settings: final glucose 2.5 mM, 30° C; for Emax(%): OD level of DMSO control = 100%
T1 construct: made in house; host or cells: E. coli
T1 sequence (P35557 1-466 isoform P35557-2): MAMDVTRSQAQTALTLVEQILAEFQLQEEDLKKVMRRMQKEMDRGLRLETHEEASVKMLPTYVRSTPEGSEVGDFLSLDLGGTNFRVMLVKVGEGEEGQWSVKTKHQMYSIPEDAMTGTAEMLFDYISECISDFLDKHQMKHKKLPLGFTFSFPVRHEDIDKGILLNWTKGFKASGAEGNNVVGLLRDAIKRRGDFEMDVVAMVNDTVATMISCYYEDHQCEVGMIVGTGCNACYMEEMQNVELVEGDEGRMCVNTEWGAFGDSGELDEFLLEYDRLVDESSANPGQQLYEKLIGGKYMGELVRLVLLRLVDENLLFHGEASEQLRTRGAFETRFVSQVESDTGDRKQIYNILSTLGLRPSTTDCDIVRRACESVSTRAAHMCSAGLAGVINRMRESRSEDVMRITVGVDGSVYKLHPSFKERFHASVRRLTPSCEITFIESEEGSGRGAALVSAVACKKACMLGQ
Excerpt: The excellent glucokinase-activating effect of the compounds of formula (I) may be determined by a method described in literature (for example, Diabetes, Vol. 45, pp. 1671-1677, 1996), or in accordance with it.
The glucokinase activity may be determined not by directly measuring glucose-6-phosphate but by measuring the level of Thio-NADH, which is produced when a reporter enzyme, glucose-6-phosphate dehydrogenase produces phosphogluconolactone from glucose-6-phosphate, and based on the level, the degree of glucokinase activation by the compound tested may be determined.
In this assay, used was a recombinant human liver GK, which was expressed by E. coli as a FLAG fusion protein therein and was purified by ANTIFLAG M2 AFFINITY GEL (Sigma).
Using a flat-bottomed 96-well plate, the assay was carried out at 30° C. 69 μl of an assay buffer (25 mM Hepes Buffer/pH=7.2, 2 mM MgCl2, 1 mM ATP, 0.5 mM TNAD, 1 mM dithiothreitol) was put into the plate, and 1 μl of a DMSO solution of the compound or DMSO alone as a control was added thereto. Next, 20 μl of an enzyme mixture (FLAG-GK, 20 U/ml G6PDH) cooled in ice was added to it, and 10 μl of a substrate, 25 mM glucose was added to it, and the reaction was initiated (final glucose concentration=2.5 mM).
After the start of the reaction, the increase in the absorbance at 405 nm was measured for 12 minutes at intervals of 30 seconds, and the increase for the first 5 minutes was used for assessing the compound tested. FLAG-GK was added so that the absorbance increase after 5 minutes in the presence of 1% DMSO could be from 0.04 to 0.06.
The OD level of the DMSO control was set as 100%; and the OD level of the test compound at different concentrations was determined. From the OD level at each concentration, Emax (%) and EC50 (μM) were computed and used as the index of the GK-activating potency of the compound.
The GK activating effect of the compounds of the invention was measured according to the method as above, and the results are shown in Table 5 below.

[2] = test system: male beagles; test: Antihyperglycemic effect in fasted beagles (plasma glucose AUC); assay type: in vivo; settings: compared to control group up to 4 hours after administration, fasted overnight
Method: From the cephalic vein of male beagles fasted overnight (9.4-14.4 kg body weight), blood was collected prior to administration, followed by oral administration of the test drug suspended in a 0.5% methyl cellulose solution (0.3 and 1 mg/kg), while a 0.5% methyl cellulose solution was orally administered to the control group. The blood was collected at 0.5, 1, 2, and 4 hours after the administration of the test drug. Plasma was separated from the obtained blood to determine a plasma glucose level using Determina-GL-E (Kyowa Medics).

[3] = test system: high-fat diet loaded mice; test: Antihyperglycemic effect in high-fat diet loaded mice; assay type: in vivo, C57BL/6J mice; settings: oral 10 mg/kg in 0.5% methyl cellulose; 1 hour after administration; free-feeding mice
Method: Six-week-old male C57BL/6J mice were fed a high-fat diet (RESEARCH DIETS, D12492) for ≧9 weeks to produce the high-fat diet loaded mice (>160 mg/dl).
The slight tail tips of the high-fat diet loaded mice (18-21 weeks old, n=6) under the conditions of free-feeding and water intake were cut with scissors to collect their blood. The collected blood was used to determine blood glucose levels prior to the administration of a compound by a blood glucose level measuring apparatus (One Touch Ultra (Johnson. Johnson)), followed by oral administration of the compound suspended in a 0.5% methyl cellulose solution at 10 mg/kg, while a 0.5% methyl cellulose solution was orally administered to the control group. The blood glucose levels were determined using the blood glucose level measuring apparatus every 1 hour after the administration of the test drug solutions.
The values of the decreases in blood glucose (differences between the control group and the compound-treated group) at 1 hour after administration were shown in Table 7 described below.
The values of the decreases in blood glucose (differences between the control group and the compound-treated group) at 1 hour after administration of the compounds according to Example 1 and Example 7 were shown in Table 7 described below.

[4] = racemates, comparison with WO2007/007910

EC50 [1, 4]: 530 nM
SMILES: O=C1CCC(c2cc3[nH]c(-c4ccccn4)nc3cc2Oc2ccc(C(=O)N3CCC3)cc2)O1 (racemic) [Example 1 Racemate, 5-{5-[4-(azetidin-1-ylcarbonyl)phenoxy]-2-pyridin-2-yl-1H-benzimidazol-6-yl}dihydrofuran-2(3H)-one]

EC50 [1, 4]: 470 nM
SMILES: CN(C)C(=O)Cc1ccc(Oc2cc3nc(-c4ccccn4)[nH]c3cc2C2CCC(=O)O2)cc1 (racemic) [Example 7 Racemate, N,N-dimethyl-2-(4-{[6-(5-oxotetrahydrofuran-2-yl)-2-pyridin-2-yl-1H-benzimidazol-5-yl]oxy}phenyl)acetamide]

EC50 [1, 4]: 490 nM
SMILES: COCc1ccc(Oc2cc3nc(-c4ccccn4)[nH]c3cc2C2CCC(=O)O2)cn1 (racemic) [Example 11 Racemate, 5-(5-{[6-(methoxymethyl)pyridin-3-yl]oxy}-2-pyridin-2-yl-1H-benzimidazol-6-yl)dihydrofuran-2(3H)-one]

Emax(%) ([1]; separated enantiomers, listed as 1 A): 541% | EC50 ([1]; separated enantiomers): 1910 nM
SMILES: O=C1CCC(c2cc3[nH]c(-c4ccccn4)nc3cc2Oc2ccc(C(=O)N3CCC3)cc2)O1 (single isomer, unassigned) [Example 1 A, 5-{5-[4-(azetidin-1-ylcarbonyl)phenoxy]-2-pyridin-2-yl-1H-benzimidazol-6-yl}dihydrofuran-2(3H)-one]

Emax(%) ([1]; separated enantiomers, listed as 1 B): 588% | EC50 ([1]; separated enantiomers): 240 nM
SMILES: O=C1CCC(c2cc3[nH]c(-c4ccccn4)nc3cc2Oc2ccc(C(=O)N3CCC3)cc2)O1 (single isomer, unassigned) [Example 1 B, 5-{5-[4-(azetidin-1-ylcarbonyl)phenoxy]-2-pyridin-2-yl-1H-benzimidazol-6-yl}dihydrofuran-2(3H)-one]
Rate of decrease (%) in plasma glucose level AUC ([2]; oral 0.3 mg/kg): 16.2% | Rate of decrease (%) in plasma glucose level AUC ([2]; oral 1.0 mg/kg): 23.4% | Difference from control group (Δmg/dl), decrease in blood glucose [3]: −132 Δmg/dl

Emax(%) ([1]; separated enantiomers, listed as 2 A): 476% | EC50 ([1]; separated enantiomers): 15100 nM
SMILES: O=C1CCC(c2cc3[nH]c(-c4ccccn4)nc3cc2Oc2ccc(C(=O)N3CCC3)nc2)O1 (single isomer, unassigned) [Example 2 A, 5-(5-{[6-(azetidin-1-ylcarbonyl)pyridin-3-yl)oxy}-2-pyridin-2-yl-1H-benzimidazol-6-yl)dihydrofuran-2(3H)-one]

Emax(%) ([1]; separated enantiomers, listed as 2 B): 704% | EC50 ([1]; separated enantiomers): 310 nM
SMILES: O=C1CCC(c2cc3[nH]c(-c4ccccn4)nc3cc2Oc2ccc(C(=O)N3CCC3)nc2)O1 (single isomer, unassigned) [Example 2 B, 5-(5-{[6-(azetidin-1-ylcarbonyl)pyridin-3-yl)oxy}-2-pyridin-2-yl-1H-benzimidazol-6-yl)dihydrofuran-2(3H)-one]

Emax(%) ([1]; separated enantiomers, listed as 4 A): 432% | EC50 ([1]; separated enantiomers): 15900 nM
SMILES: CN(C)C(=O)c1ccc(Oc2cc3nc(-c4ccccn4)[nH]c3cc2C2CCC(=O)O2)cn1 (single isomer, unassigned) [Example 4 A, N,N-dimethyl-5-{[6-(5-oxotetrahydrofuran-2-yl)-2-pyridin-2-yl-1H-benzimidazol-5-yl]oxy}pyridine-2-carboxamide]

Emax(%) ([1]; separated enantiomers, listed as 4 B): 668% | EC50 ([1]; separated enantiomers): 280 nM
SMILES: CN(C)C(=O)c1ccc(Oc2cc3nc(-c4ccccn4)[nH]c3cc2C2CCC(=O)O2)cn1 (single isomer, unassigned) [Example 4 B, N,N-dimethyl-5-{[6-(5-oxotetrahydrofuran-2-yl)-2-pyridin-2-yl-1H-benzimidazol-5-yl]oxy}pyridine-2-carboxamide]

Emax(%) ([1]; separated enantiomers, listed as 6 A): 553% | EC50 ([1]; separated enantiomers): 1830 nM
SMILES: CCNC(=O)c1ccc(Oc2cc3nc(-c4ccccn4)[nH]c3cc2C2CCC(=O)O2)cn1 (single isomer, unassigned) [Example 6 A, N-ethyl-5-{[6-(5-oxotetrahydrofuran-2-yl)-2-pyridin-2-yl-1H-benzimidazol-5-yl]oxy}pyridine-2-carboxamide]

Emax(%) ([1]; separated enantiomers, listed as 6 B): 781% | EC50 ([1]; separated enantiomers): 240 nM
SMILES: CCNC(=O)c1ccc(Oc2cc3nc(-c4ccccn4)[nH]c3cc2C2CCC(=O)O2)cn1 (single isomer, unassigned) [Example 6 B, N-ethyl-5-{[6-(5-oxotetrahydrofuran-2-yl)-2-pyridin-2-yl-1H-benzimidazol-5-yl]oxy}pyridine-2-carboxamide]

Emax(%) ([1]; separated enantiomers, listed as 7 A): 775% | EC50 ([1]; separated enantiomers): 2470 nM
SMILES: CN(C)C(=O)Cc1ccc(Oc2cc3nc(-c4ccccn4)[nH]c3cc2C2CCC(=O)O2)cc1 (single isomer, unassigned) [Example 7 A, N,N-dimethyl-2-(4-{[6-(5-oxotetrahydrofuran-2-yl)-2-pyridin-2-yl-1H-benzimidazol-5-yl]oxy}phenyl)acetamide]

Emax(%) ([1]; separated enantiomers, listed as 7 B): 972% | EC50 ([1]; separated enantiomers): 290 nM
SMILES: CN(C)C(=O)Cc1ccc(Oc2cc3nc(-c4ccccn4)[nH]c3cc2C2CCC(=O)O2)cc1 (single isomer, unassigned) [Example 7 B, N,N-dimethyl-2-(4-{[6-(5-oxotetrahydrofuran-2-yl)-2-pyridin-2-yl-1H-benzimidazol-5-yl]oxy}phenyl)acetamide]
Rate of decrease (%) in plasma glucose level AUC ([2]; oral 0.3 mg/kg): 12.4% | Rate of decrease (%) in plasma glucose level AUC ([2]; oral 1.0 mg/kg): 15.6% | Difference from control group (Δmg/dl), decrease in blood glucose [3]: −146 Δmg/dl

Emax(%) ([1]; separated enantiomers, listed as 11 A): 412% | EC50 ([1]; separated enantiomers): 16600 nM
SMILES: COCc1ccc(Oc2cc3nc(-c4ccccn4)[nH]c3cc2C2CCC(=O)O2)cn1 (single isomer, unassigned) [Example 11 A, 5-(5-{[6-(methoxymethyl)pyridin-3-yl]oxy}-2-pyridin-2-yl-1H-benzimidazol-6-yl)dihydrofuran-2(3H)-one]

Emax(%) ([1]; separated enantiomers, listed as 11 B): 788% | EC50 ([1]; separated enantiomers): 270 nM
SMILES: COCc1ccc(Oc2cc3nc(-c4ccccn4)[nH]c3cc2C2CCC(=O)O2)cn1 (single isomer, unassigned) [Example 11 B, 5-(5-{[6-(methoxymethyl)pyridin-3-yl]oxy}-2-pyridin-2-yl-1H-benzimidazol-6-yl)dihydrofuran-2(3H)-one]
